Here are results for 4 molecules from US20250163119A1, “COMPOUNDS FOR THE TREATMENT OF DIABETES OR OBESITY” (Eli Lilly and Company, priority 2023, published 2025).

One data set addresses T1, human CRHR1 (Homo sapiens, UniProt P34998).
T1 construct: expressed in transfected cells
T1 sequence (P34998 24-415): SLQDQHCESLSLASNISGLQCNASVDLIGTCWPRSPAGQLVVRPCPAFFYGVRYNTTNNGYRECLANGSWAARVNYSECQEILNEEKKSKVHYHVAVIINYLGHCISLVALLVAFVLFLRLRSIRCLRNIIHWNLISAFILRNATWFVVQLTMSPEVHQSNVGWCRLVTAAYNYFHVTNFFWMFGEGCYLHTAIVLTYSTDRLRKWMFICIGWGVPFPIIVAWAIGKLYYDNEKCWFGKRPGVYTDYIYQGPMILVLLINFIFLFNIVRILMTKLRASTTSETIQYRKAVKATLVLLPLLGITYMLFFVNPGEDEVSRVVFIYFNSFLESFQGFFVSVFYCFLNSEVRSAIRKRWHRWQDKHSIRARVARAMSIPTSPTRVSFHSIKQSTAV
Put plainly: Human CRHR1 cAMP assay (HTRF) in HEK293 cells stably expressing human CRHR1. The format is cell-based. To be noted: HEK293 cells overexpressing human CRHR1; relative EC50, maximum 66 nM human UCN1; mean ± SE; read-out: hCRHR1 cAMP EC50 (pM, ± SE). In outline: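 HEK293 cells stably expressing human CRHR1 (25,000/well) or CRHR2b (5,000/well) were treated with peptides in MEM with 0.1% casein, 5 mM HEPES pH 7.4 and 0.25 mM IBMX. Incubation was 1 h at 37 °C for CRHR1 and 30 min at room temperature for CRHR2. cAMP was measured by HTRF (665/620 nm) against a per-experiment cAMP standard curve.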
Background: Changes in cAMP serve as a functional read-out for many G protein-coupled receptors.

The test system of another data set is CD4+ T cells. Put plainly: T cell proliferation assay. To be noted: for T Cell Proliferation Assay: protein 7-10 donors with diverse MHC: responding donors / donors tested. The format is cell-based, human. On the procedure:
This assay assessed the ability of tested antibodies or tested MAPPS peptides to activate CD4+ T cells by inducing cellular proliferation. CD8+ T cell depleted PBMC's were prepared and labeled with CFSE. Each sample was tested with media control, keyhole limpet haemocyanin (KLH; positive clinical benchmark control), tested antibodies, or tested MAPPS peptides. Cultures were incubated for 7 days. On day 7, samples were analyzed by flow cytometry.

Data set [1] can be described thus: Pharmacokinetics in CD-1 mice, single 100 nmol/kg subcutaneous dose. The data set is classed as in vivo. To be noted: mouse, plasma, sc, male CD-1 mice, mean. Here is the method:
Plasma concentrations of compounds were determined by LC/MS methods. For each assay, the compound and an internal standard (IS), were extracted from 100% mouse, rat, pig, or monkey plasma (70 μL) using Isopropanol-Methanol. Two distinct layers were formed upon centrifugation with the compound and the IS located in the supernatant layer. An aliquot of the supernatant (150 μL) was transferred to a Waters Sirocco Protein Precipitation Plate. The supernatant was eluted using a positive pressure manifold. The supernatant was mixed with 100-2 Water-Formic acid (400 μL) in a pretreated Sep-Pak tC18 SPE plate and eluted to waste. The peptide and IS were eluted with Acetonitrile-Formic acid (100 μL) in 2 steps (50 μL each step). The elution (40 μL) from SPE plate was mixed with diluent solution (1.875 μL 5× invitrosol and 3.125 μL 1% formic acid in water, 80 μL). A final sample (10 μl) was loaded onto a Xselect CSH C18 IS column (3.5 μm 2.1×20 mm). The column effluent was directed into a Thermo Fisher Scientific Orbitrap (Exploris 240) mass spectrometer for detection and quantitation.
Male CD-1 mice were administered a single subcutaneous dose (100 nmol/kg) of compound in 40 mM Tris-HCl 5% D-mannitol (pH 8) at a volume of 5 mL/kg. Blood was collected at 6, 24, 48, 96, 168, 240, 288, and 336 hours postdose for pharmacokinetic characterization.

*1 amine or outer side, *2 acyl side, *3 side chain or, on linkers, in order; H or OH if unused. Where a SMILES comes first, the peptide text is derived from it. Side-chain parts run from the residue outwards. [ ]: non-standard residue; d: D form. The star is where a group is joined. C20 diacid = O=C(O)CCCCCCCCCCCCCCCCCCC(=O)*; γGlu = O=C(O)[C@H](CCC(=O)[*:2])N[*:1]; εLys = N[C@@H](CCCCN[*:1])C(=O)[*:2]; NMeI = CC[C@H](C)[C@H](NC)C(=O)O; pGlu = O=C1CC[C@@H](C(=O)O)N1; αMeL = CC(C)C[C@](C)(N)C(=O)O; AEEA = NCCOCCOCC(=O)O; Aib = CC(C)(N)C(=O)O

Consider `CC[C@H](C)[C@H](NC)C(=O)N[C@H](C(=O)N[C@@H](CC(C)C)C(=O)N[C@@H](CO)C(=O)N[C@@H](CC(C)C)C(=O)N[C@@H](CC(=O)O)C(=O)N[C@H](C(=O)N1CCC[C@H]1C(=O)N[C@H](C(=O)NCC(=O)N[C@@H](CC(C)C)C(=O)N[C@@H](CC(C)C)C(=O)N[C@@H](CCC(N)=O)C(=O)N[C@H](C(=O)N[C@@H](CC(C)C)C(=O)N[C@@H](CC(C)C)C(=O)N[C@@H](CCC(=O)O)C(=O)N[C@@H](CCC(N)=O)C(=O)N[C@@H](CCC(=O)O)C(=O)N[C@@H](CCCCN)C(=O)N[C@@H](CCC(N)=O)C(=O)N[C@@H](CCC(=O)O)C(=O)N[C@@H](CCCCN)C(=O)N[C@@H](CCC(=O)O)C(=O)N[C@@H](CCCCN)C(=O)N[C@@H](CCC(N)=O)C(=O)N[C@@H](CCC(N)=O)C(=O)N[C@@H](C)C(=O)N[C@@H](CCCCNC(=O)COCCOCCNC(=O)COCCOCCNC(=O)CC[C@H](NC(=O)CC[C@H](NC(=O)CCCCCCCCCCCCCCCCCCC(=O)O)C(=O)O)C(=O)O)C(=O)N[C@H](C(=O)N[C@@H](CC(N)=O)C(=O)N[C@@H](C)C(=O)N[C@@H](CCC(N)=O)C(=O)N[C@H](C(=O)N[C@@H](CC(C)C)C(=O)N[C@@H](C)C(=O)N[C@@H](CCC(N)=O)C(=O)N[C@H](C(N)=O)C(C)C)[C@@H](C)CC)[C@@H](C)O)[C@@H](C)CC)[C@@H](C)CC)C(C)C)C(C)C` [SEQ ID NO: 54] (H-[NMeI]VLSLDVPIGLLQILLEQEKQEKEKQQAK([AEEA-AEEA-γGlu-γGlu-C20 diacid])TNAQILAQV-NH2), for which, on human CRHR1, the EC50 was above 1e+07 pM. Moreover, in the data set on CD4+ T cells (CD8+ T cell depleted PBMCs, 7 days, ten donors), the “CD4+ T cell proliferation response in donors” value is “elicited a response in four out of ten donors”. Further, the “T Cell Proliferation Assay: protein 7-10 donors with diverse MHC” value (“T Cell Proliferation Assay” for short) in the data set with CD4+ T cells is recorded as 4/10.

Take “Ac-GSPSIVTS[αMeL]DVPT[Aib][αMeL]LQKILEQERAEKARQQAK([γGlu-AEEA-εLys-C20 diacid])EAAEILAQV-NH2 [SEQ ID NO: 1, Ac-GSPSIVTS αMeL DVPT Aib αMeL LQKILEQERAEKARQQAK(γE-(2-[2-(2-Amino-ethoxy)-ethoxy]-acetyl)-ϵK-CO-(CH2)18-CO2H)EAAEILAQV-NH2]”: on human CRHR1, the EC50 is above 1e+07 pM. For the same molecule, in data set [1], the AUC0-inf stood at 25.7 µM·h, the CL/F is 3.94 mL/h/kg, the peak level (Cmax) was 327 nM and the Tmax came out at 24 h. The molecule further showed a half-life in data set [1] of 22.8 h. Also, the “T Cell Proliferation Assay” value with CD4+ T cells is 0/9.

Regarding “[pGlu]GSPSGIVTS[αMeL]DVPT[Aib][αMeL]LQKILEQERAEKARQQAK([γGlu-AEEA-εLys-C20 diacid])EAAEILAQV-NH2 [SEQ ID NO: 22, Pyr-GSPSGIVTS αMeL DVPT Aib αMeL LQKILEQERAEKARQQAK(γE-(2-[2-(2-Amino-ethoxy)-ethoxy]-acetyl)-ϵK-CO-(CH2)18-CO2H)EAAEILAQV-NH2]”, on human CRHR1, the EC50 was above 1e+07 pM. Also, in data set [1], the AUC0-inf came out at 15 µM·h, the apparent clearance CL/F was 6.76 mL/h/kg, the Cmax came to 270 nM and the Tmax was found to be 24 h. For the same molecule, the half-life in data set [1] was 25.1 h. The “T Cell Proliferation Assay” value in the data set with CD4+ T cells is given as 0/9.

In the case of “{C20 diacid-εLys-AEEA-γGlu}-GSPSIVTS[αMeL]DVPT[Aib][αMeL]LQKILEQERAEKARQQATEAAEILAQV-NH2 [SEQ ID NO: 25]”, the EC50 at human CRHR1 was above 1e+07 pM. Besides, in data set [1], the AUC0-inf is 25 µM·h, the CL/F was 4.01 mL/h/kg, the Cmax was 366 nM and the time of peak concentration (Tmax) turned out to be 24 h. In data set [1], this molecule had a half-life of 32.5 h. Moreover, the “T Cell Proliferation Assay” value in the data set with CD4+ T cells was 0/9.

Usually EC50 stands for the concentration needed to bring the measured effect to its halfway point. A word on the CL/F: it is the apparent clearance, not corrected for the fraction that reaches the circulation. Broadly, the Cmax is the highest concentration seen after dosing. A word on the Tmax: it is the time from dosing to the highest level. One may read the half-life as the time needed for the level to fall by half in the phase considered. A high value points to slow loss.
